The text below walks through data of article PMC10893631, “Receptor-based pharmacophore modeling, molecular docking, synthesis and biological evaluation of novel VEGFR-2, FGFR-1, and BRAF multi-kinase inhibitors” (BMC Chemistry, 2024).

In assay [1] the test system is HL-60(TB). Briefly: NCI SRB growth inhibition (single dose 10 µM / five-dose). Particulars: Homo sapiens; for inhibition at 10 µM: HL-60(TB) (Leukemia), read-out: GI%; for GI50: HL-60(TB), Leukemia, five-dose. The format is cell-based, human. In short, it runs like this:
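Three dose–response parameters were calculated per compound, among them TGI, defined at Ti = Tz. Percentage growth came from SRB absorbance normalised to time-zero and control wells, with negative values indicating cell kill below Tz.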

Assay [2] concerns CAKI-1. The assay is described as above. Type of assay: cell-based, human. Particulars: Homo sapiens; for inhibition at 10 µM: CAKI-1 (Renal cancer), read-out: GI%; for GI50: CAKI-1, Renal cancer, five-dose. The gist of the method: (§1)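 Seeding varied with cell doubling time (5000–40,000 cells/well). Dilutions were 10-fold or ½ log, five levels in total. Sulforhodamine B staining (0.4% w/v, 10 min, room temperature) of TCA-fixed cells measured growth.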

Assay [3] deals with SF-295. The assay is described as above. Particulars: Homo sapiens; for inhibition at 10 µM: SF-295 (CNS cancer), read-out: GI%; for GI50: SF-295, CNS cancer, five-dose. The format is cell-based, human. The gist of the method: as §1
For assay [4], the system named is M14. The description is as above. The format is cell-based, human. Particulars: Homo sapiens; for inhibition at 10 µM: M14 (Melanoma), read-out: GI%; for GI50: M14, Melanoma, five-dose. In short, it runs like this: as §1
Assay [5] deals with UACC-62. Described as above. Type of assay: cell-based, human. Particulars: Homo sapiens; for inhibition at 10 µM: UACC-62 (Melanoma), read-out: GI%; for GI50: UACC-62, Melanoma, five-dose. The gist of the method: as §1
Assay [6] relates to DU-145. Described as above. The format is cell-based, human. Particulars: Homo sapiens; for inhibition at 10 µM: DU-145 (Prostate cancer), read-out: GI%; for GI50: DU-145, Prostate cancer, five-dose. In short, it runs like this: as §1
Assay [7] has as its system OVCAR-4. Described as above. Type of assay: cell-based, human. Particulars: Homo sapiens; for inhibition at 10 µM: OVCAR-4 (Ovarian cancer), read-out: GI%; for GI50: OVCAR-4, Ovarian cancer, five-dose. In short, it runs like this: as §1
Assay [8] concerns LOX IMVI. Described as above. The format is cell-based, human. Particulars: Homo sapiens; for inhibition at 10 µM: LOX IMVI (Melanoma), read-out: GI%; for GI50: LOX IMVI, Melanoma, five-dose. The gist of the method: as §1
In assay [9] the target is T1, VEGFR-2 (Homo sapiens, UniProt P35968).
T1 construct: purchased BPS Biosciences 40325
T1 sequence (P35968 20-1356): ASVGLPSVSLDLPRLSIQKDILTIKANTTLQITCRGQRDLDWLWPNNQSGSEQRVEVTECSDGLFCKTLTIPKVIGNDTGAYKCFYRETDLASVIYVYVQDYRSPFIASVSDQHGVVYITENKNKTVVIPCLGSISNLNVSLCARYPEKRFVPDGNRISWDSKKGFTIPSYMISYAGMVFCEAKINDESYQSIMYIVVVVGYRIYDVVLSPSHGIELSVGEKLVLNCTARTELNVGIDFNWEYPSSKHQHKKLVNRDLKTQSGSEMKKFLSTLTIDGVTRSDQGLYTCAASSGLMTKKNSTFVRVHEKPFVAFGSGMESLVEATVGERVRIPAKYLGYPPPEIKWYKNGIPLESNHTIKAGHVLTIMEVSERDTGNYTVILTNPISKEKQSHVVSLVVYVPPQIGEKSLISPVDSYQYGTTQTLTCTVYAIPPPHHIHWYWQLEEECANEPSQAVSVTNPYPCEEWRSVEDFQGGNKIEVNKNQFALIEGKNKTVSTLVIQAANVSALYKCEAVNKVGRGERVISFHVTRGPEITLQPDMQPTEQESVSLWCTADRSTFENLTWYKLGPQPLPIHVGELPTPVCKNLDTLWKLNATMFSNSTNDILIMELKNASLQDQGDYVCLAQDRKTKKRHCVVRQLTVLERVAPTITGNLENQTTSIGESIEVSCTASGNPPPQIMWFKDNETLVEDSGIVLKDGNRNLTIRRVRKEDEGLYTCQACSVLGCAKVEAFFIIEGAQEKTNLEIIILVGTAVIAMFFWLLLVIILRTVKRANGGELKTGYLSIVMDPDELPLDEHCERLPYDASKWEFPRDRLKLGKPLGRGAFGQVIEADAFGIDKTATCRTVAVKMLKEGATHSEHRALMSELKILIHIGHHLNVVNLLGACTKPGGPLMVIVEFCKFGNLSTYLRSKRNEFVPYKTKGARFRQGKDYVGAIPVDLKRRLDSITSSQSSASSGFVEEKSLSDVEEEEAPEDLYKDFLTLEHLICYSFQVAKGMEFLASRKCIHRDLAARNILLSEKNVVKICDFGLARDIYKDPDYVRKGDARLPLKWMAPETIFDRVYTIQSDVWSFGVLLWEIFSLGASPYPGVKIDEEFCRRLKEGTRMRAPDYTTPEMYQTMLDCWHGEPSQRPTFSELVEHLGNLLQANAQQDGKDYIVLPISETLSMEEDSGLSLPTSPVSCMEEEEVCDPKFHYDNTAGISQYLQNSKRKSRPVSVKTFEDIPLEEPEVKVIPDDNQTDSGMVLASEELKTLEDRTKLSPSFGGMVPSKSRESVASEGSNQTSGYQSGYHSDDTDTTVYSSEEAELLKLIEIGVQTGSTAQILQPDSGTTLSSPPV
Briefly: VEGFR-2 kinase assay kit (BPS), Kinase-Glo Max luminescence. Particulars: VEGFR-2, single dose 10 µM, duplicate, mean ± SD. The format is biochemical. How it is done:
2. Biochemical kinase assay procedure
The inhibitory activity against different kinases was determined using kinase kits […]
from BPS Biosciences and kinase-Glo Max luminescence kinase assay kit (Promega).
The assay was carried out according to the protocol provided by the manufacturer. A stock solution of the synthesized derivatives in 100% DMSO was prepared. Subsequently, the compounds were diluted to 10% DMSO.
A master mixture was prepared according to the number of wells. For VEGFR-2 and FGFR-1 biochemical assays each well include 6 μl of 5x Kinase Buffer 1 + 1 μl of 500 μM ATP + 1 μl of PTK Substrate (Poly-Glu,Tyr 4:1) (10 mg/ml) + 17 μl of distilled water. For BRAF assay each well include 6 μl of 5x Kinase Buffer 1 + 1 μl of ATP (500 μM) + 10 μl of 5X Raf substrate + 8 μl of distilled water. 1x Kinase buffer 1 was prepared by mixing 600 μl of 5x Kinase Buffer 1 with 2400 μl water to give 3 mL. Kinases were thawed on ice and were diluted with 1x Kinase Buffer 1.
To start the biochemical reaction, 25 µL of the master mixture was added to each well in 96 well plate. 5 µL of 10% DMSO was added to positive control wells and blank wells. 5 µL of diluted inhibitor was added to each well labelled with the test inhibitor so that the final concentration of DMSO is 1% in all reactions. Then 20 µL of (1 ng / μl) in case of VEGFR-2 and FGFR-1 or (2.5 ng/μl) in case of BRAF in 1x kinase buffer was added to positive control wells and wells labelled with the inhibitor, while 20 µL 1x kinase buffer 1 was added to the […]
The plate was incubated at 30 °C for 45 min. Subsequently, 50 μl of Kinase-Glo Max luminescence reagent was added to each well and the plate was covered with aluminum foil and incubated at room temperature 15 min. Finally, the luminescence was recorded using multimode microplate reader. Kinase activity assays were performed in duplicate at each […]
The luminescence data were analyzed as follows. The difference between luminescence intensities in the absence of kinase (Lut) and in the presence of kinase (Luc) was defined as 100 % activity (Lut – Luc). Using luminescence signal (Lu) in the presence of the compound, % activity was calculated as: % activity = {(Lut - Lu)/(Lut - Luc)}×100%. The […]
concentration of the test compounds required to reduce the kinase activity by 50% was determined from dose-response curves and recorded as their IC50. […]
(Kinase-Glo reads ATP consumption through a luciferase reaction.)

Assay [10] concerns NCI panel of 60 tumor cell lines. In words: NCI SRB growth inhibition, whole panel mean (single dose 10 µM / five-dose). Particulars: Homo sapiens; for GI50: mean over NCI cancer cell lines, five-dose. Type of assay: cell-based, human. As for the experimental part: Screening of cytotoxic activity against a panel of sixty human tumor cell lines The selected compounds by NCI were evaluated for their anticancer activity in a two- stage process. […] Then, the output from the single dose screen is reported as a mean graph. […] Assay protocol. […] For a typical screening experiment, cells are inoculated into 96 well microtiter plates in 100 µL at plating densities ranging from 5000 to 40,000 cells/well depending on the doubling time of individual cell lines. […] After 24 h, two plates of each cell line are fixed in situ with TCA, to represent a measurement of the cell population for each cell line at the time of drug addition (Tz). The experimental drugs are solubilized in dimethyl sulfoxide at 400-fold the desired final maximum test concentration and stored frozen prior to use. At the time of drug addition, an aliquot of frozen concentrate is thawed and diluted to twice the desired final maximum test concentration with complete medium containing 50 µg/mL gentamicin. Additional four, 10-fold or ½ log serial dilutions are made to provide a total of five drug concentrations plus control. Aliquots of 100 mL of these different drug dilutions are added to the appropriate microtiter wells already containing […] of medium, resulting in the required final drug concentrations. […] For adherent cells, the assay is terminated by the addition of cold TCA. […] The supernatant is discarded, and the plates are washed five times with tap water and air dried. Sulforhodamine B (SRB) solution ([…]) at 0.4% (w/v) in 1% acetic acid is added to each well, and plates are incubated for 10 min at room temperature. After staining, unbound dye is removed by washing five times with 1% acetic acid and the plates are air dried. […] Using the seven absorbance measurements [time zero, (Tz), control growth, (C), and test growth in the presence of drug at the five concentration levels (Ti)], the percentage growth is calculated at each of the drug concentrations levels. Percentage growth inhibition is calculated as: [(Ti Tz)/(C–Tz)] x 100 for concentrations for which Ti>/=Tz and [(Ti-Tz)/Tz] x 100 for concentrations for which Ti < Tz. Three dose response parameters are calculated for each experimental agent. […] The drug concentration resulting in total growth inhibition (TGI) is calculated from Ti = Tz. […] Values are calculated for each of these three parameters if the level of activity is reached; however, if the effect is not reached or is exceeded, the value for that parameter is expressed as greater or less than the maximum or minimum concentration tested.

The mark [11] stands for this setting: mean over NCI 60 cell lines, > 100% = lethal effect, read-out: mean growth inhibition % (GI%).
[12] abbreviates: mean over NCI panel of 60 tumor cell lines, read-out: Mean growth inhibition %.

Where two headings read alike, the source gives them in different places.

Turning to `COc1ccc(-c2nc3cc(C(=O)NN=Cc4cc(OC)c(OC)c(OC)c4)ccc3[nH]2)cc1` [8n, 2-(4-Methoxyphenyl)-N'-(3,4,5-trimethoxybenzylidene)-1H-benzo[d]imidazole-5-carbohydrazide], the inhibition at 10 µM in assay [1] was under 5%; in assay [2] it was 23.8%; in [3], 29.8%; in assay [4], 40.3%; in [5] it was 68.5%; in [6], under 5%. The inhibition at 10 µM is under 5% in [7]; 7.53% in assay [8]; 20.8 ± 1.78% in [9]; 13.6% in [10] (setting [11]); 13.6% in assay [10] (setting [12]).
For the compound `O=C(NN=Cc1ccccc1O)c1ccc2[nH]c(-c3ccc(Cl)cc3)nc2c1` [8o, 2-(4-Chlorophenyl)-N'-(2-hydroxybenzylidene)-1H-benzo[d]imidazole-5-carbohydrazide], the inhibition at 10 µM was 47.1% in assay [1]; over 100% in assay [2]; over 100% in assay [3]; 90.9% in assay [4]; 95.3% in [5]; over 100% in assay [6]. The inhibition at 10 µM in assay [7] is over 100%; in assay [8], over 100%; in [9], 22.3 ± 1.95%; in assay [10] (setting [11]), over 100%; in assay [10] (setting [12]) it was over 100%. Moreover, the GI50 (commonly the concentration that inhibits growth by half) in assay [1] amounted to 310 nM; in [2], 220 nM; in assay [3], 1600 nM; in [4] it was 1810 nM; in assay [5], 1690 nM; in assay [6], 1360 nM. Further, the GI50 in assay [7] turned out to be 1250 nM; in assay [8], 430 nM; in [10] it was 5440 nM.
As to `O=C(NN=Cc1cccc(O)c1)c1ccc2[nH]c(-c3ccc(Cl)cc3)nc2c1` [8p, 2-(4-Chlorophenyl)-N'-(3-hydroxybenzylidene)-1H-benzo[d]imidazole-5-carbohydrazide], the inhibition at 10 µM in [1] was under 5%; in [2], under 5%; in [3], 11.8%; in assay [4], 25.4%; in [5] it was 19.6%; in assay [6], under 5%. For the same compound, the inhibition at 10 µM in assay [7] was found to be 15.7%; in [8], 14.7%; in [9] it was 22.3 ± 0.86%; in [10] (setting [11]) it was 25.4%; in [10] (setting [12]), 25.4%.
Consider `COc1cccc(C=NNC(=O)c2ccc3[nH]c(-c4ccc(Cl)cc4)nc3c2)c1` [8q, 2-(4-Chlorophenyl)-N'-(3-methoxybenzylidene)-1H-benzo[d]imidazole-5-carbohydrazide], for which the inhibition at 10 µM in [1] was 50.7%; in assay [2] it was over 100%; in [3], over 100%; in [4] it was over 100%; in assay [5], over 100%; in assay [6], over 100%. The inhibition at 10 µM was over 100% in assay [7]; over 100% in assay [8]; 21.5 ± 1.54% in assay [9]; over 100% in assay [10] (setting [11]); over 100% in [10] (setting [12]). Further, the 50% growth inhibitory concentration (GI50) came out at 19500 nM in assay [1]; 3840 nM in [2]; 2170 nM in assay [3]; 2150 nM in [4]; 4920 nM in assay [5]; 2040 nM in [6]. The values for the concentration for 50% growth inhibition (GI50) in assay [7], in assay [8] and in assay [10] were 3070 nM, 1820 nM and 5400 nM, respectively.
Take `COc1cccc(C=NNC(=O)c2ccc3[nH]c(-c4ccc(Cl)cc4)nc3c2)c1O` [8r, 2-(4-Chlorophenyl)-N'-(2-hydroxy-3-methoxybenzylidene)-1H-benzo[d]imidazole-5-carbohydrazide]: the inhibition at 10 µM in assay [1], in assay [2], in assay [3], in [4], in [5] and in assay [6] was over 100% throughout. Moreover, the inhibition at 10 µM in [7] is over 100%; in assay [8], over 100%; in assay [9] it was 25.7 ± 1.87%; in assay [10] (setting [11]), over 100%; in assay [10] (setting [12]), over 100%. For the same compound, the GI50 in assay [1] came out at 1950 nM; in assay [2] it was 2310 nM; in [3], 2200 nM; in assay [4] it was 2070 nM; in assay [5] it was 1230 nM; in [6] it was 1990 nM. The GI50 was 1410 nM in assay [7], 1180 nM in assay [8] and 3390 nM in assay [10].
In the case of `COc1ccc(C=NNC(=O)c2ccc3[nH]c(-c4ccc(Cl)cc4)nc3c2)cc1O` [8s, 2-(4-Chlorophenyl)-N'-(3-hydroxy-4-methoxybenzylidene)-1H-benzo[d]imidazole-5-carbohydrazide], the inhibition at 10 µM in assay [1] worked out at 45.3%; in assay [2] it was 18.5%; in [3], 85%; in assay [4] it was 42.1%; in assay [5], 37.5%; in assay [6] it was 16.2%. Besides, the inhibition at 10 µM in assay [7] amounted to 20.8%; in assay [8] it was 44.9%; in assay [9], 26.7 ± 1.83%; in assay [10] (setting [11]) it was 49.5%; in assay [10] (setting [12]), 49.5%.
